Test results reported in patent publication US20250332173A1, “COMPOUNDS AND METHODS FOR MODULATING NUCLEIC ACID SPLICING” (REMIX THERAPEUTICS INC., priority 2021, published 2025).
Where two headings read alike, the source gives them in different places.

Columns and labels:
Type in all cases: cell-based, human
[1] = system: HTT mRNA; assay: RT-qPCR splicing assay, HTT canonical junction (CJ) and alternative junction (AJ) mRNA; details: Homo sapiens; for AC50: increase in HTT alternative junction (AJ) mRNA, read-out: HTT AJ AC50
How it was run: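 Splicing switches were read by TaqMan RT-qPCR on lysates, quantifying exon-exon junctions of the canonical and alternative-exon isoforms. Lysates came from K562 (GAPDH/GUSB reference) or A673 (PPIA reference) cells exposed 24 h to compound in 11 threefold steps from 10 uM, with DMSO ≤0.25%.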

[2] = system: MYB; assay: HiBiT protein abundance assay, MYB HiBiT K562 cell line; details: HiBiT K562 cell line, 24 hours, top dose 10 μM; read-out: Effect on protein abundance, MYB (IC50 category)
How it was run: (§1)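 Tagged-protein abundance measured by split-NanoBiT luminescence after lysis, following 24 h compound exposure (37° C; 10 μM top, 3-fold, 10 points; DMSO ≤0.25%) of HiBiT knock-in K562 cells. Percent response vs DMSO and unmodified-cell controls; 4-parameter logistic interpolation at 50% gave IC50.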

[3] = system: HTT; assay: HiBiT protein abundance assay, HTT HiBiT K562 cell line; details: HiBiT K562 cell line, 24 hours, top dose 10 μM; read-out: Effect on protein abundance, HTT (IC50 category)
How it was run: as §1

[4] = decrease in HTT canonical junction (CJ) mRNA, RT-qPCR, read-out: HTT CJ IC50
[5] = Table 5 panel, canonical junction qPCR, compound concentration having 50% response in CJ decrease, read-out: HTT IC50 (decrease in CJ mRNA levels)

Structure (SMILES)	IC50 [1, 4]	IC50 [1, 5]	IC50 [2]	IC50 [3]	AC50 ([1]; RT-qPCR)
Cn1cc2cc(-n3cnc4cc(C5=CC6CCC(C5)N6)ccc4c3=O)ccc2n1 (centres unmarked) [Compound 160]	> 10 µM	> 10 µM	> 10 µM	> 10 µM	> 10 µM
Cc1cn2cc(-c3cc(F)c4c(=O)n(C5CCNCC5)ccc4c3)cc(C#N)c2n1 [Compound 383, 6-[8-fluoro-1-oxo-2-(piperidin-4-yl)isoquinolin-6-yl]-2-methylimidazo[1,2-a]pyridine-8-carbonitrile]	1 to 10 µM	0.1 to 1 µM	< 0.1 µM	0.1 to 1 µM	0.1 to 1 µM
Cc1nc2c(F)cc(-c3cc(F)c4c(=O)n(C5CCNC6(CC6)C5)ccc4c3)cc2o1 (centres unmarked) [Compound 417, 2-{4-azaspiro[2.5]octan-7-yl}-8-fluoro-6-(4-fluoro-2-methyl-1,3-benzoxazol-6-yl)isoquinolin-1-one]	< 0.1 µM	< 0.1 µM	< 0.1 µM	< 0.1 µM	< 0.1 µM
Cc1cn2cc(-c3cc(F)c4c(=O)n(C5CCOC5)cnc4c3)cc(C#N)c2n1 (stereo in doubt) [Compound 499, (R)-6-(5-fluoro-4-oxo-3-(tetrahydrofuran-3-yl)-3,4-dihydroquinazolin-7-yl)-2-methylimidazo[1,2-a]pyridine-8-carbonitrile]	0.1 to 1 µM	0.1 to 1 µM	0.1 to 1 µM	0.1 to 1 µM	0.1 to 1 µM
Cc1cn2cc(-c3cc(S(C)(=O)=O)c4c(=O)n(C5CCNCC5)ccc4c3)cc(F)c2n1 [Compound 409, 6-(8-fluoro-2-methylimidazo[1,2-a]pyridin-6-yl)-8-(methylsulfonyl)-2-(piperidin-4-yl)isoquinolin-1(2H)-one]	> 10 µM	> 10 µM	> 10 µM	> 10 µM	> 10 µM
Cc1cn2cc(-c3ccc4c(=O)n([C@H]5CCNC5)cc(C)c4c3)cc(C#N)c2n1 [Compound 456, (S)-2-methyl-6-(4-methyl-1-oxo-2-(pyrrolidin-3-yl)-1,2-dihydroisoquinolin-6-yl)imidazo[1,2-a]pyridine-8-carbonitrile]	> 10 µM	> 10 µM	1 to 10 µM	> 10 µM	> 10 µM
Cc1cn2nc(-c3cc(F)c4c(=O)n([C@@H]5CCNC6(CC6)C5)ncc4c3)cc(C)c2n1 [Compound 446]	< 0.1 µM	< 0.1 µM	< 0.1 µM	< 0.1 µM	< 0.1 µM
Cn1cc2cc(-c3cc(F)c4c(=O)n(C5CCNC6(CC6)C5)ccc4c3)c(O)cc2n1 (centres unmarked) [Compound 414, 2-{4-azaspiro[2.5]octan-7-yl}-8-fluoro-6-(6-hydroxy-2-methylindazol-5-yl)isoquinolin-1-one]	1 to 10 µM	1 to 10 µM	1 to 10 µM	1 to 10 µM	1 to 10 µM
Cc1cn2cc(-n3ccc4cc(N5C[C@@H](C)N[C@@H](C)C5)ccc4c3=O)nc(C)c2n1 [Compound 454, 2-{2,8-dimethylimidazo[1,2-a]pyrazin-6-yl}-6-[(3R,5S)-3,5-dimethylpiperazin-1-yl]isoquinolin-1-one]	> 10 µM	> 10 µM	> 10 µM	> 10 µM	> 10 µM
Cc1cn2c(n1)CCC(c1ccc3c(=O)n(C4CCNCC4)ccc3c1)C2 (centres unmarked) [Compound 453, 6-{2-methyl-5H,6H,7H,8H-imidazo[1,2-a]pyridin-6-yl}-2-(piperidin-4-yl)isoquinolin-1-one]	> 10 µM	> 10 µM	> 10 µM	> 10 µM	> 10 µM
CC(=O)c1cc(-c2cc(F)c3c(=O)n(C4CCNCC4)ccc3c2)cn2cc(C)nc12 [Compound 393, 6-{8-acetyl-2-methylimidazo[1,2-a]pyridin-6-yl}-8-fluoro-2-(piperidin-4-yl)isoquinolin-1-one 2,2,2-trifluoroacetate]	1 to 10 µM	0.1 to 1 µM	< 0.1 µM	0.1 to 1 µM	0.1 to 1 µM

Second part, led by results:

IC50 [1, 4]	IC50 [1, 5]	IC50 [2]	IC50 [3]	Structure (SMILES)	AC50 ([1]; RT-qPCR)
1 to 10 µM	1 to 10 µM	0.1 to 1 µM	0.1 to 1 µM	Cc1cn2nc(-c3ccc4c(=O)n(C5CCCNC5)ccc4c3)cc(C)c2n1 (stereo in doubt) [Compound 410, 6-{2,8-dimethylimidazo[1,2-b]pyridazin-6-yl}-2-[(3S)-piperidin-3-yl]isoquinolin-1-one]	1 to 10 µM
< 0.1 µM	< 0.1 µM	< 0.1 µM	< 0.1 µM	Cc1cn2nc(-c3cc(C)c4c(=O)n(C5CCNC6(CC6)C5)ncc4c3)cc(C)c2n1 (centres unmarked) [Compound 423, 6-(2,8-dimethylimidazo[1,2-b]pyridazin-6-yl)-8-methyl-2-(4-azaspiro[2.5]octan-7-yl)phthalazin-1(2H)-one]	< 0.1 µM
< 0.1 µM	< 0.1 µM	< 0.1 µM	< 0.1 µM	Cc1cn2nc(-c3ccc4c(=O)n([C@H]5CCNC6(CC6)C5)ccc4c3)cc(C)c2n1 [Compound 445]	< 0.1 µM
0.1 to 1 µM	0.1 to 1 µM	0.1 to 1 µM	0.1 to 1 µM	Cn1cc2nc(-c3ccc4c(=O)n(C5CCNC6(CC6)C5)ncc4c3)ccc2n1 (centres unmarked) [Compound 511]	0.1 to 1 µM
> 10 µM	> 10 µM	1 to 10 µM	> 10 µM	Cc1cc(-c2cc(F)c3c(=O)n(C4CCNC5(CC5)C4)ccc3c2)cc2c1nc(C)n2C (centres unmarked) [Compound 429]	> 10 µM
< 0.1 µM	< 0.1 µM	< 0.1 µM	< 0.1 µM	Cc1cn2nc(-c3cc(C)c4c(=O)n(C5CCNC6(CC6)C5)ccc4c3)cc(C)c2n1 (stereo in doubt) [Compound 398, (R)-6-(2,8-dimethylimidazo[1,2-b]pyridazin-6-yl)-8-methyl-2-(4-azaspiro[2.5]octan-7-yl)isoquinolin-1(2H)-one]	< 0.1 µM
1 to 10 µM	1 to 10 µM	0.1 to 1 µM	1 to 10 µM	Cc1cn2cc(-c3ccc4c(=O)n([C@@H]5CCCNC5)ccc4c3)cc(F)c2n1 (single isomer, unassigned) [Compound 403]	1 to 10 µM
0.1 to 1 µM	0.1 to 1 µM	< 0.1 µM	0.1 to 1 µM	Cc1cn2cc(-c3ccc4c(=O)n(C5CCNCC5)cc(C)c4c3)cc(F)c2n1 [Compound 440, 6-{8-fluoro-2-methylimidazo[1,2-a]pyridin-6-yl}-4-methyl-2-(piperidin-4-yl)isoquinolin-1-one]	0.1 to 1 µM
> 10 µM	> 10 µM	1 to 10 µM	> 10 µM	Cc1cn2cc(-c3ccc4c(=O)n([C@@H]5CCNC5)cc(C)c4c3)cc(F)c2n1 [Compound 452, (R)-6-(8-fluoro-2-methylimidazo[1,2-a]pyridin-6-yl)-4-methyl-2-(pyrrolidin-3-yl)isoquinolin-1(2H)-one]	> 10 µM
> 10 µM	> 10 µM	1 to 10 µM	> 10 µM	Cn1cc2c(n1)CCN(c1cc(F)c3c(=O)n(C4CCNCC4)cnc3c1)C2 [Compound 365, 5-fluoro-7-(2-methyl-2,4,6,7-tetrahydro-5H-pyrazolo[4,3-c]pyridin-5-yl)-3-(piperidin-4-yl)quinazolin-4(3H)-one]	> 10 µM
> 10 µM	> 10 µM	> 10 µM	> 10 µM	Cc1cc(-c2ccc3c(=O)n(C4CCN(C)CC4)cnc3n2)cc2cn(C)nc12 [Compound 173]	> 10 µM
> 10 µM	> 10 µM	> 10 µM	> 10 µM	CN1CCC(Nc2ccc3c(=O)n(-c4ccc5nn(C)cc5c4)cnc3c2)CC1 [Compound 163]	> 10 µM
< 0.1 µM	< 0.1 µM	< 0.1 µM	< 0.1 µM	Cc1cc(-c2cc(F)c3c(=O)n(C4CCNC5(CC5)C4)ccc3c2)cc2cn(C)nc12 (centres unmarked) [Compound 415, 2-{4-azaspiro[2.5]octan-7-yl}-6-(2,7-dimethylindazol-5-yl)-8-fluoroisoquinolin-1-one]	< 0.1 µM
< 0.1 µM	< 0.1 µM	< 0.1 µM	< 0.1 µM	Cc1cn2nc(-c3cc4ccn(C5CCNCC5)c(=O)c4cc3O)cc(C)c2n1 [Compound 448, 6-{2,8-dimethylimidazo[1,2-b]pyridazin-6-yl}-7-hydroxy-2-(piperidin-4-yl)isoquinolin-1-one]	< 0.1 µM
